Laboratory results from patent publication US12280022B2, “Method of treating major depressive disorder” (Clexio Biosciences Ltd., priority 2018, dated 2025).

Assays:
[1] = tested on: animal models of depression; conditions: without psychotomimetic side effects and abuse liability; cited from earlier work
[2] = tested on: human peripheral blood lymphocytes (HPBL); conditions: definitive assay; non-activated 4- and 20-hour treatment conditions; any dose
Experimental: The clastogenic potential of esketamine was evaluated in the in vitro mammalian chromosome aberration test using human peripheral blood lymphocytes (HPBL) in both the absence and presence of an induced metabolic activation system (the 9000 g supernatant [S9] microsomal fraction of liver homogenate from rats exposed to Aroclor-1254).
The study was conducted in 2 phases, with a preliminary toxicity test used to determine the appropriate concentrations for the definitive chromosomal aberration assay. Water was used as a negative (vehicle) control. Toxicity (defined as ≥45% reduction in MI relative to the vehicle control) was evaluated at 9 concentrations, ranging from 0.0238 to 238 μg/ml, after exposure of HPBL to esketamine for 20 hours in the absence of S9 activation, or for 4 hours, either in the presence or absence of S9 activation, followed by a 16-hour recovery period.
The definitive chromosome aberration assay evaluated HPBL cells after exposure to esketamine for 20 hours in the absence of S9 activation, or for 4 hours, either in the presence of absence of S9 activation, followed by a 16-hour recovery. Positive controls for chromosomal aberrations in non-activated and S9-activated evaluations, respectively, consisted of mitomycin C (MMC, 0.6 and 0.3 μg/mL for the 4- and 20-hour exposures, respectively) and cyclophosphamide (CP, 2.5, 5, and 7.5 μg/mL). […]

male Sprague Dawley rats = assay: 7-day forced swim test; format: in vivo; conditions: intraperitoneal
Experimental: Groups of, 6-7 week old, male Sprague Dawley rats were administered esketamine by intraperitoneal injection and their behavioral despair assessed by a forced swim test. The animals, in cohorts of 10, were administered either a single dose of 15 mg/kg esketamine, 7 daily doses of either 7.5 or 15 mg/kg esketamine or a vehicle control, and the test performed 30 minutes after dosing. Statistical evaluation was performed using an ordinary One-Way ANOVA, t Test and an Uncorrected Fisher's LSD comparisons test.

[3] = tested on: healthy male and female subjects; assay: Single dose crossover study in healthy volunteers: treatment-emergent adverse events; format: in vivo, human
Excerpt: A total of 128 TEAEs (treatment-emergent adverse event) were reported by 15 of 16 (94%) subjects of which 79 TEAEs reported by 14 of 16 (88%) subjects were to be related to the study drug. Overall, a total of 14 of 128 TEAEs reported by 4 (25%) subjects were of moderate severity and 114 of 128 TEAEs reported by 15 (94%) subjects were of mild severity. […] The most frequently occurring adverse events (reported more than twice) were headache, dizziness, hypokinesia, feeling abnormal, fatigue, euphoric mood inappropriate affect, nausea and hyperhidrosis. Table 4 presents the frequency of the most frequently reported related TEAEs as a percentage of the subjects that experienced an adverse effect per treatment.

liver of Crl:CD(SD) rats = assay: In vivo single cell gel electrophoresis (comet) assay in liver; conditions: male and female rats; oral gavage

## CN[C@@]1(c2ccccc2Cl)CCCCC1=O [(R)-ketamine, (2R)-2-(2-Chlorophenyl)-2-(methylamino)cyclohexanone]
[1]
  antidepressant effects compared with esketamine: greater potency and longer-lasting antidepressant effects

## CN[C@]1(c2ccccc2Cl)CCCCC1=O [esketamine, (2S)-2-(2-Chlorophenyl)-2-(methylamino)cyclohexanone]
[2]
  cytotoxicity (≥45% reduction in mitotic index relative to the vehicle control): not observed
Male Sprague Dawley rats
  antidepressant-like effect of continuous 7-day treatment vs single acute dose at the same dose levels: stronger antidepressant-like effect
[3]; 0.3 mg/kg iv
  Dizziness, related TEAE, subjects: 6%
  Euphoric mood, related TEAE, subjects: 19%
  Fatigue, related TEAE, subjects: 6%
  Feeling abnormal, related TEAE, subjects: 13%
  Headache, related TEAE, subjects: 19%
  Hypokinesia, related TEAE, subjects: 6%
  Inappropriate affect, related TEAE, subjects: 6%
  Nausea, related TEAE, subjects: 6%
[3]; 20 mg oral solution
  Feeling abnormal, related TEAE, subjects: 19%
  Headache, related TEAE, subjects: 19%
  Inappropriate affect, related TEAE, subjects: 6%
[3]; 20 mg oral tablet
  Dizziness, related TEAE, subjects: 13%
  Fatigue, related TEAE, subjects: 7%
  Feeling abnormal, related TEAE, subjects: 7%
  Hyperhidrosis, related TEAE, subjects: 7%
[3]; 100 mg oral tablet
  Dizziness, related TEAE, subjects: 13%
  Euphoric mood, related TEAE, subjects: 13%
  Feeling abnormal, related TEAE, subjects: 20%
  Headache, related TEAE, subjects: 13%
  Hyperhidrosis, related TEAE, subjects: 7%
  Hypokinesia, related TEAE, subjects: 13%
  Inappropriate affect, related TEAE, subjects: 7%
  Nausea, related TEAE, subjects: 20%
[3]; one subject (Subject 11) of 16, after first treatment period
  AE leading to withdrawal from the study: mild hyperbilirubinemia
Liver of Crl:CD(SD) rats
  DNA strand breaks in the liver: evidence of causing an increase in DNA strand breaks
